# Measured values published in patent US6784201B2, “Benzothiepines having activity as inhibitors of ileal bile acid transport and taurocholate uptake” (G.D. Searle & Company, priority 1994, dated 2004).
# Target: T1, human IBAT (Homo sapiens, UniProt Q12908)
# T1 construct: expressed in transfected cells; host or cells: Baby hamster kidney (BHK) cells, clone H14
# T1 sequence (Q12908 1-348): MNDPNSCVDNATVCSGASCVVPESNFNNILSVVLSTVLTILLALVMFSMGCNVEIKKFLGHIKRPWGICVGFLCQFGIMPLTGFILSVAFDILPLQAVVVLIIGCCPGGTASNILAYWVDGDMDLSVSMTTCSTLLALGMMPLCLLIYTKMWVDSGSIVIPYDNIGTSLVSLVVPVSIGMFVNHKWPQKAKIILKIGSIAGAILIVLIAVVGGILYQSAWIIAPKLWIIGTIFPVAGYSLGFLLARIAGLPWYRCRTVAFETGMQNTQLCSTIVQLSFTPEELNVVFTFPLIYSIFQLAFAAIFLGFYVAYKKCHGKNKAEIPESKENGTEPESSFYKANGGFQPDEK
# Assay: In vitro assay of IBAT-mediated uptake of [14C]-taurocholate (TC) in H14 cells
# Type: cell-based
# Settings: 100 uM; read-out: In vitro % Inhibition of TC Uptake @ 100 uM
# In short: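 BHK cells stably expressing human IBAT (H14) were incubated 2 h at 37° C with compound and 3 μM final [14C]-taurocholate in DMEM (4.5 g/L glucose) plus 0.2% fatty acid-free BSA. After cold PBS washes, cell-associated radioactivity was measured by scintillation counting.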
row,SMILES,inhibition at 100 µM
1,"CCC1CS(=O)(=O)c2ccccc2[C@@]2(c3ccccc3)O[C@@H]12 (stereo partly drawn) [Example 13, (1aα,2α,8bα) 2-Ethyl-8b-phenyl-1a,2,3,8b-tetrahydro-benzothiepino-[4,5-b] oxirene-4,4-dioxide]",23%
2,"CCCC[C@]1(CC)CSc2ccccc2[C@H](c2ccccc2)C1=O (relative stereo) [Example 4a, cis-3-Butyl-3-ethyl-5-phenyl-2,3-dihydrobenzothiepin-(5H)4-one]",3%
3,"CC[C@@H]1CS(=O)(=O)c2ccccc2[C@@H](c2ccccc2)[C@H]1O [Example 14b, (3α,4β,5β) 3-Ethyl-4-hydroxy-5-phenyl-2,3,4,5-tetrahydrobenzothiepine-1,1-dioxide]",18%

# Same assay, conditions: Human TC IC50
row,SMILES,IC50
1,CCCCC1(CCCC)CS(=O)(=O)c2ccc(N(C)C)cc2C(c2ccc(CC(=O)N(C)CN(C)C)c(F)c2)C1O (stereo not shown) [Example 1280],760 nM

# Same assay, conditions: read-out: Human TC IC50
row,SMILES,IC50
1,CCCCC1(CCCC)CS(=O)(=O)c2ccc(N(C)C)cc2C(c2ccc(OCCCCC[N+](CC)(CC)CC)c(F)c2)C1O (stereo not shown) [Example 1011],1 nM
2,CCCCC1(CCCC)CS(=O)(=O)c2ccc(N(C)C)cc2C(c2ccc(OCc3cccc(C[N+](CC)(CC)CC)n3)c(F)c2)C1O (stereo not shown) [Example 1020],2 nM
3,CCCCC1(CCCC)CS(=O)(=O)c2ccc(N(C)C)cc2C(c2ccc(OCCOCC[N+]34CCN(CC3)CC4)c(F)c2)C1O (stereo not shown) [Example 1073],4 nM
4,CCCCC1(CCCC)CS(=O)(=O)c2ccc(N(C)C)cc2C(c2cccc(OCCOCCOCC[n+]3ccc4c(c3)CCCC4)c2)C1O (stereo not shown) [Example 1132],20 nM
5,CCCCC1(CCCC)CS(=O)(=O)c2ccc(N(C)C)cc2C(c2cccc(OCCOCCOCC[n+]3ccc(-c4ccccc4)cc3)c2)C1O (stereo not shown) [Example 1119],10 nM
6,CCCCC1(CCCC)CS(=O)(=O)c2ccc(OC)cc2C(c2ccc(N(C)C)cc2)C1O (stereo not shown) [Example 1182],250 nM
7,CCCCC1(CCCC)CS(=O)(=O)c2ccc(N(C)C)cc2C(c2cccc(NC(=O)CCCC[N+](CC)(CC)CC)c2)C1O (stereo not shown) [Example 1005],0.4 nM
8,CCCCC1(CCCC)CS(=O)(=O)c2ccc(N(C)C)cc2C(c2cccc(OCCOCCOCC[n+]3cccc4ccccc43)c2)C1O (stereo not shown) [Example 1090],6 nM
9,CCCCC1(CCCC)CS(=O)(=O)c2ccc(N(C)C)cc2C(c2ccc(OC)cc2)C1O (stereo not shown) [Example 1100],6.8 nM
10,CCCCC1(CC)CS(=O)(=O)c2ccc(NC(=O)OCc3ccccc3)cc2C(c2ccc(F)cc2)C1O (stereo not shown) [Example 128],700 nM
11,CCCCC1(CCCC)CS(=O)(=O)c2ccc(N(C)C)cc2C(c2cccc(C[n+]3ccccc3)c2)C1O (stereo not shown) [Example 1107],7.5 nM
12,"CCCCC1(CC)CS(=O)(=O)c2ccc(C)cc2C(c2ccc(F)cc2)C1O (single isomer, unassigned) [Example 283]",350 nM
13,CCCCC1(CCCC)CS(=O)(=O)c2ccc(N(C)C)cc2C(c2cccc(OCCOCCOCC[N+](C)(C)CC(=O)OCC)c2)C1O (stereo not shown) [Example 1093],6 nM
14,CCC1(CC)CS(=O)(=O)c2ccc(N)cc2[C@@H](c2ccccc2)[C@H]1O [Example 287],4000 nM
15,CCCCC1(CCCC)CS(=O)(=O)c2ccc(N(C)C)cc2C(c2ccc(OC)c(F)c2)C1O (stereo not shown) [Example 1010],1 nM
16,CCCCC1(CCCC)CS(=O)(=O)c2c(F)cc(F)cc2C(c2ccccc2)C1O (stereo not shown) [Example 1186],300 nM
17,CCCCC1(CCCC)CS(=O)(=O)c2ccc(N(C)C)cc2C(c2cccc(OCCOCCOCC[N+](C)(C3CCCCC3)C3CCCCC3)c2)C1O (stereo not shown) [Example 1091],6 nM
18,CCCCC1(CCCC)CS(=O)(=O)c2ccc(N(C)C)cc2C(c2cc(Cl)c(OC)c(Cl)c2)C1O (stereo not shown) [Example 1161],63 nM
19,CCCCC1(CCCC)CS(=O)(=O)c2ccc(N(C)C)cc2C(c2ccc(OCCOCCOCC[N+](C)(C)C)c(F)c2)C1O (stereo not shown) [Example 1013],2 nM
20,"CCCCC1(CC)CS(=O)(=O)c2ccc(OC)cc2C(c2cccc(C(F)(F)F)c2)C1O (single isomer, unassigned) [Example 264]",200 nM
21,CCCCC1(CC)CS(=O)(=O)c2ccc(NC(C)=O)cc2C(c2ccccc2)C1O (stereo not shown) [Example 110],90 nM
22,CCCCC1(CCCC)CS(=O)(=O)c2ccc(NC)cc2C(c2cccc(OC)c2)C1O (stereo not shown) [Example 1114],9 nM
23,"CCCCC1(CCCC)CS(=O)(=O)c2c(cccc2N2CCOCC2)C(c2ccc(OC)cc2)C1O (single isomer, unassigned) [Example 1212]",390 nM
24,CCCCC1(CCCC)CS(=O)(=O)c2c(cc(N(C)C)cc2N(C)C)C(c2ccccc2)C1O (stereo not shown) [Example 1069],4 nM
25,CCCCC1(CCCC)CS(=O)(=O)c2ccc([N+](C)(C)C)cc2C(c2ccc(OC)c(F)c2)C1O (stereo not shown) [Example 1165],110 nM
26,CCCCC1(CC)CS(=O)(=O)c2ccc(N(C)C)cc2C(c2cccc(OCCOCCOCC[N+](C)(C)CCCCCC[N+](C)(C)CCOCCOCCOc3cccc(C4c5cc(N(C)C)ccc5S(=O)(=O)CC(CC)(CCCC)C4O)c3)c2)C1O (stereo not shown) [Example 1079],5 nM

row,SMILES,IC50
1,CCCCC1(CCCC)CS(=O)(=O)c2ccc(N(C)C)cc2C(c2cccc(OCCOCCOCC[N+](CC)(CC)CC)c2)C1O (stereo not shown) [Example 1007],1 nM
2,CCCCC1(CC)CS(=O)(=O)c2ccc(N3CCOCC3)cc2C(c2ccc(F)cc2)C1O (stereo not shown) [Example 284],80 nM
3,CCCCC1(CCCC)CS(=O)(=O)c2ccc(N(C)C)cc2C(c2cccc(OCCOCCOCC[n+]3ccc4ccccc4c3)c2)C1O (stereo not shown) [Example 1054],3 nM
4,CCCCC1(CCCC)CS(=O)(=O)c2ccc(NC(C)C)cc2C(c2ccc(F)cc2)C1O (stereo not shown) [Example 1264],210 nM
5,CCCCC1(CCCC)CS(=O)(=O)c2c(cc(F)cc2N(C)C)C(c2ccccc2)C1O (stereo not shown) [Example 1230],62 nM
6,CCCCC1(CCCC)CS(=O)(=O)c2c(OC)cccc2C(c2cccc(OC)c2)C1O (stereo not shown) [Example 1154],37 nM
7,CCCCC1(CCCC)CS(=O)(=O)c2ccc(N(C)C)cc2C(c2cccs2)C1O (stereo not shown) [Example 1262],30 nM
8,CCCCC1(CCCC)CS(=O)(=O)c2ccc(N(C)C)cc2C(c2cccc(CBr)c2)C1O (stereo not shown) [Example 1246],18 nM
9,"CCCCC1(CC)CS(=O)(=O)c2ccc(OC)cc2C(c2cccc(OC)c2)C1O (single isomer, unassigned) [Example 263]",700 nM
10,CCCCC1(CCCC)CS(=O)(=O)c2ccc(N(C)C)cc2C(c2cccc(OCCOCCOCCI)c2)C1O (stereo not shown) [Example 1136],21 nM
11,CCCCC1(CC)CS(=O)(=O)c2ccc(N(C)C)cc2C(c2ccc(OC)c(F)c2)C1O (stereo not shown) [Example 1074],4 nM
12,CCCCC1(CC)CS(=O)(=O)c2ccc(N(C)C)cc2C(c2ccc(OC)cc2)C1O (stereo not shown) [Example 1099],6.3 nM
13,CCCCC1(CCCC)CS(=O)(=O)c2ccc([N+](C)(C)C)cc2C(c2cccc(O)c2)C1O (stereo not shown) [Example 1166],110 nM
14,CCCCC1(CCCC)CS(=O)(=O)c2ccc(N(C)C)cc2C(c2ccccc2N(C)C)C1O (stereo not shown) [Example 1210],140 nM
15,CCCCC1(CCCC)CS(=O)(=O)c2c(NC(C)C)cccc2C(c2ccc(F)cc2)C1O (stereo not shown) [Example 1265],240 nM
16,CCCCC1(CCCC)CS(=O)(=O)c2c(cc(F)cc2N(C)C)C(c2ccc(F)cc2)C1O (stereo not shown) [Example 1157],40 nM
17,CCCCC1(CCCC)CS(=O)(=O)c2ccc(N3CCN(C)CC3)cc2C(c2ccc(OC)cc2)C1O (stereo not shown) [Example 1195],1700 nM
18,CCCCC1(CCCC)CS(=O)(=O)c2ccc(SC)cc2C(c2ccc(F)cc2)C1O (stereo not shown) [Example 1156],39 nM
19,CCCCC1(CC)CS(=O)(=O)c2ccc(N(C)C)cc2C(c2ccc(OS(=O)(=O)CC34CCC(CC3=O)C4(C)C)c(F)c2)C1O (stereo not shown) [Example 1308],40 nM
20,CCCCC1(CC)CS(=O)(=O)c2cc(O)ccc2C(c2ccccc2)C1O (stereo not shown) [Example 1316],3900 nM
21,CCCCC1(CCCC)CS(=O)(=O)c2ccc(N(C)C)cc2C(c2cccc(OCCOCCOCC[N+](C)(C)C3CC(C)(C)N(C)C(C)(C)C3)c2)C1O (stereo not shown) [Example 1370],2 nM
22,CCCC[C@]1(CC)CS(=O)(=O)c2ccc(N)cc2[C@@H](c2ccc(OCCOCCOCCI)cc2)[C@H]1O [Example 295],1300 nM
23,CCCCC1(CC)CS(=O)(=O)c2ccc(O)cc2C(c2cccc(O)c2)C1O (stereo not shown) [Example 266],500 nM
24,CCCCC1(CCCC)CS(=O)(=O)c2ccc(OC)cc2C(c2ccncc2)C1O (stereo not shown) [Example 1158],60 nM
25,CCCCC1(CC)CS(=O)(=O)c2ccc(OC)cc2C(c2cccc(F)c2)C1O (stereo not shown) [Example 277],40 nM
